This passage reports ED50 results from patent publication EP0029303B1, “1,2,4-Triazole derivatives, processes for their production and pharmaceutical compositions containing them” (GLAXO GROUP LIMITED, priority 1979, dated 1981).

The test system of the assay is histamine induced gastric acid secretion. The assay can be described thus: inhibition of histamine induced gastric acid secretion in the perfused rat stomach preparation. Type of assay: in vivo. As to conditions: sodium pentobarbitone anaesthesia. The text has this: Certain novel heterocyclic derivatives having a structure different from the compounds referred to above, have now been found which have potent activity as H2-antagonists.
The results obtained for a representative number of compounds according to the invention are given below: […]

Broadly, the ED50 is the dose at which the effect has come halfway, by size or by number of responders. Higher therefore signals weaker potency.

Each structure is given as a SMILES string.

Consider `Cn1nc(N)nc1NCCCOc1cccc(CNCc2ccco2)c1` [1 (b), 1-methyl-N^5-[3-[3-[(2-furanylmethyl)aminomethyl]phenoxy]propyl)-1H-1,2,4-triazole-3,5-diamine], for which the 50% effect level (ED50) was put at a dose of 0.095 mg/kg.

Take `CCCCCCCCCCCCNCc1cccc(OCCCNc2nc(N)nn2C)c1` [1 (d), 1-methyl-N^5-[3-[3-[(dodecylamino)methyl]phenoxy]-propyl]-1H-1,2 4-triazoie-3,5-diamine]: the 50% effective dose (ED50) was determined as 0.075 mg/kg.

Regarding `CN(Cc1ccco1)Cc1ccc(CSCCNc2nc(CO)nn2C)o1` [Example 6, 5-[[2-[[[5-[[N-Methyl(2-furanylmethyl)amino]methyl]-2-furanyl]methyl]thio]ethyl]amino]-1-methyl-1 H-1,2,4-triazole-3-methanol], it took a dose of 0.077 mg/kg to reach the 50% effect level (ED50).

As for `Cn1nc(N)nc1NCCCOc1cccc(CNCc2ccc[nH]2)c1` [2 (d), 1-methyl-N5-[3-[3-[(1H-pyrrol-2-yl-methyl)amino-methyl]phenoxy]propyl]-1H-1,2,4-triazole-3,5-diamine], the ED50 amounted to 0.014 mg/kg.

In turn, `Cn1nc(N)nc1NCCCOc1cccc(CNCc2ccc(CO)o2)c1` [Example 2 (a), 5-[[3-[3-[(3-Amino-1-methyl-1,2,4-triazol-5-yl)-amino]propoxy]phenylmethyl]aminomethyl]furan-2-methanol] gave an ED50 of 0.19 mg/kg.

In turn, `Cn1nc(N=Cc2ccncc2)nc1NCCCOc1cccc(CNCc2ccco2)c1` [Example 5, 1-Methyl-N3-(4-pyridylmethylene)-N^5-[3-[3-[(2-furanylmethyt)-aminomethyl)phenoxy]propyl]-1 H-1,2,4-triazole-3,5-diamine] showed an ED50 of 0.18 mg/kg.

Take `CCCCNC(=O)CCCCCNCc1cccc(OCCCNc2nc(N)nn2C)c1` [1 (g)]: the 50% effect level (ED50) was put at a dose of 0.25 mg/kg.
